Source: patent US20080153760A1, “Haircare Use Of C-Glycoside Derivatives” (L'OREAL, priority 2005, published 2008)

Assay: Degree of premature breaking of hair, tensile test
Details: parameter R; natural African hair immersed three days at 40° C. in composition of 5% by weight compound and 95% water, no final rinsing; hairs 30 mm, pulled at 10 mm/minute; untreated control 0.27
Description: The hair used for the following tests was regulated beforehand in a glove box at 25° C. and 45% relative humidity for about 24 hours. This was natural curly African hair.
The four abovementioned compounds were respectively formulated in the form of a composition comprising 5% by weight of the compound under consideration and 95% by weight of water relative to the total weight of the composition.
Four batches of natural African hair were treated, respectively, with each of the four compositions according to the following protocol: the hair is immersed for three days at 40° C. in the composition under consideration, without final rinsing, and its degree of premature breaking is then assessed by comparison with that of a batch of untreated natural control hair.
The degree of premature breaking of the hair is characterized by the following parameter R:
R=1−(number of hairs showing breakage under tension in the hardening zone/N),
N being the total number of hairs tested.
The corresponding mechanical tests are performed using a Zwicko tensile testing machine on hairs 30 mm long. The hairs were pulled at a speed of 10 mm/minute.

Row | Structure (SMILES) | Degree of premature breaking
1 | CC(=O)C[C@@H]1O[C@H](CO)[C@@H](O)[C@H](O)[C@H]1O [Compound 4, C-β-D-glucopyranoside-n-propan-2-one] | 0.23
2 | CC(O)C[C@@H]1OC[C@@H](O)[C@H](O)[C@H]1O (stereo partly drawn) [Compound 1, C-β-D-xylopyranoside-2-hydroxypropane] | 0.17
3 | CC(=O)C[C@@H]1OC[C@@H](O)[C@H](O)[C@H]1O [Compound 2, C-β-D-Xylopyranoside-n-propan-2-one] | 0.20
4 | CC(=O)C[C@@H]1O[C@H](CO)[C@@H](O[C@@H]2O[C@H](CO)[C@H](O)[C@H](O)[C@H]2O)[C@H](O)[C@H]1O [Compound 3, C-β-D-Lactopyranoside-n-propan-2-one] | 0.13
